Data taken from patent publication US20200147116A1, “Use of Paeoniflorin-6'-O-benzenesulfonate in treatment of Sjögren's syndrome” (NINGBO ZHIMING BIOTECHNOLOGY CO., LTD., priority 2017, published 2020).
Marks after values point to notes of the source that are not given here.

Tests used:
Assay type in all cases: in vivo
[1] = tested on: spleen CD4+ CD25+ FOXP3+ T lymphocytes; test: Spleen CD4+ CD25+ FOXP3+ T lymphocytes in NOD model mice (FIG. 14)
Description: FIG. 14 Effects of CP-25 on spleen CD4^+ CD25^+ FOXP3^+ T lymphocytes in NOD model mice.

[2] = tested on: spleen B lymphocyte; test: Spleen B lymphocyte proliferation in SS model mice (FIG. 3)
Description: FIG. 3 Effects of CP-25 on spleen B lymphocyte proliferation in SS model mice.

[3] = tested on: spleen CD11c+ MHC-II+ DC; test: Spleen CD11c+ MHC-II+ DC in SS model mice (FIG. 9)
Description: FIG. 9 Effects of CP-25 on spleen CD11c^+ MHC-II^+ DC in SS model mice.

[4] = tested on: spleen CD11c+ CD80+ DC; test: Spleen CD11c+ CD80+ DC in SS model mice (FIG. 8)
Description: FIG. 8 Effects of CP-25 on spleen CD11c^+ CD80^+ DC in SS model mice.

[5] = tested on: submaxillary glands in NOD mice; test: Pathological grading of submaxillary glands in NOD mice; details: for Score: mice with submaxillary gland pathology Grade 0 / Score: mice with submaxillary gland pathology Grade I / Score: mice with submaxillary gland pathology Grade II / Score: mice with submaxillary gland pathology Grade III / Score: mice with submaxillary gland pathology Grade IV: NOD mice
Protocol: (§1) Mice were sacrificed after two weeks of administration, and then submaxillary glands of four mice of each group were removed and pathologically observed. At first, the submaxillary gland should be fixed in 10% buffered formalin for 24 h, followed by washing, dehydration and clearing, wax-filling, embedding, sectioning and finally H&E staining. […] Results were graded pathologically.
(§2) Note: The histological findings graded of submaxillary glands according to the Chisholm-Mason scale; grade 0, absence of lymphocytic infiltration; grade I, slight lymphocytic infiltration; grade II, moderate lymphocytic infiltration; grade III, one focus of lymphocytic infiltration per 4 mm^2 tissue; grade IV, more than one focus of lymphocytic infiltration per 4 mm^2 tissue (Note: One focus of lymphocytic infiltration has been defined as an aggregate of 50 or more lymphocytes gathered in the labial gland stroma per 4 mm^2 of tissue.

[6] = tested on: NOD mice; test: Saliva amount in NOD mice; details: for Saliva amount in NOD mice, Pre-administration: baseline before administration
Protocol: Before measurement, mice were anesthetized via intraperitoneal injection of 0.05 ml of 2.4% pentobarbital sodium, and the satisfactory anesthesia was smooth breathing, corneal reflex disappearance and limb muscle relaxation. After complete anesthesia, a mouse was placed in slightly tilted trendelenburg position, and its body was kept warm using the heater. The mouse was injected intraperitoneally with 0.1 ml of 0.025 mg/ml Pilocarpine, and 5 min later, a weighed cotton ball was placed in the mouth of the mouse for 10 min. After taking the ball out, the saliva weight of mice was measured by the wet weight method.
Therapeutic effects of on Sjögren's syndrome CP-25 in NOD mice.

[7] = tested on: SS mice; test: Organic indexes (spleen, submaxillary gland, thymus) in SS mice
Description: 2 Sjögren's syndrome model mice: C57BL/6 female mice housed in a SPF environment with successful modeling (The animal model was made via repeated multi-point intracutaneous injection of submaxillary gland homogenate of homologous mice to tail and back of mice). The animal model was made via repeated multi-point intracutaneously injection of submaxillary gland homogenate of homologous mice to tail and back of mice, and the mice with successful modeling were randomly assigned to each group according to comprehensive conditions of mice. At the same time, the average weight and status of each group of mice should be as close as possible. Paeoniflorin-6′-O-benzenesulfonate, white crystalline powder, purity 98.5%, was dissolved in trace ethanol (75 mg of CP-25 was soluble in 40 μl of ethanol), and then sodium carboxymethylcellulose was added to formulate a suspension of CP-25. Corresponding dose gradient, low dose (17.5 mg/kg), medium dose (35 mg/kg) and high dose (70 mg/kg) of said pharmaceutical should be prepared before medication, stored in 4° C. refrigerator for use. High dose of said pharmaceutical should be incubated for half an hour before use.

[8] = tested on: submaxillary gland in SS mice; test: Histopathological examination and grading of submaxillary gland in SS mice (H&E, Chisholm-Mason scale); details: for Score: mice with submaxillary gland pathology Grade 0 / Score: mice with submaxillary gland pathology Grade I / Score: mice with submaxillary gland pathology Grade II / Score: mice with submaxillary gland pathology Grade III / Score: mice with submaxillary gland pathology Grade IV: two weeks of administration, four mice of each group
Protocol: as §1, §2

[9] = tested on: spleen B lymphocytes; test: Spleen B lymphocyte proliferation in NOD model mice (FIG. 12B)
Description: FIG. 12 Effects of CP-25 on spleen T and B lymphocyte proliferation in NOD model mice.
A: T lymphocytes; B: B lymphocytes

C[C@@]12C[C@@]3(O)O[C@H](O1)C1(COC(=O)c4ccccc4)[C@@H]3CC12OC1OC(COS(=O)(=O)c2ccccc2)C(O)C(O)C1O (some centres unmarked) [CP-25, Paeoniflorin-6′-O-benzenesulfonate]
Ratio of spleen CD4+ CD25+FOXP3+ Treg lymphocytes [1]: significantly improve | Spleen B lymphocyte proliferation [2]: significantly inhibit | Expression of surface molecular MHC-II+ on spleen CD11c+ DC [3]: significantly inhibit | Expression of surface molecular CD80+ on spleen CD11c+ DC [4]: significantly inhibit | Score: mice with submaxillary gland pathology Grade 0 ([5]; 17.5 mg/kg): 0 | Score: mice with submaxillary gland pathology Grade I ([5]; 17.5 mg/kg): 0 | Score: mice with submaxillary gland pathology Grade II ([5]; 17.5 mg/kg): 0 | Score: mice with submaxillary gland pathology Grade III ([5]; 17.5 mg/kg): 1 | Score: mice with submaxillary gland pathology Grade IV ([5]; 17.5 mg/kg): 3 | Score: mice with submaxillary gland pathology Grade 0 ([5]; 35 mg/kg): 0 | Score: mice with submaxillary gland pathology Grade I ([5]; 35 mg/kg): 0 | Score: mice with submaxillary gland pathology Grade II ([5]; 35 mg/kg): 0 | Score: mice with submaxillary gland pathology Grade III ([5]; 35 mg/kg): 1 | Score: mice with submaxillary gland pathology Grade IV ([5]; 35 mg/kg): 3 | Score: mice with submaxillary gland pathology Grade 0 ([5]; 70 mg/kg): 0 | Score: mice with submaxillary gland pathology Grade I ([5]; 70 mg/kg): 0 | Score: mice with submaxillary gland pathology Grade II ([5]; 70 mg/kg): 0 | Score: mice with submaxillary gland pathology Grade III ([5]; 70 mg/kg): 3 | Score: mice with submaxillary gland pathology Grade IV ([5]; 70 mg/kg): 1 ^# | Pathological changes in submaxillary gland ([5]; NOD model mice, Example 6): apparently ameliorate the pathological changes | Saliva amount in NOD mice, One week after administration ([6]; 17.5 mg/kg): 15.20 ± 1.04 mg/each mouse/10 min | Saliva amount in NOD mice, Two weeks after administration ([6]; 17.5 mg/kg): 14.25 ± 1.46 mg/each mouse/10 min | Saliva amount in NOD mice, One week after administration ([6]; 35 mg/kg): 15.60 ± 1.50 mg/each mouse/10 min | Saliva amount in NOD mice, Two weeks after administration ([6]; 35 mg/kg): 15.25 ± 1.36 mg/each mouse/10 min | Saliva amount in NOD mice, One week after administration ([6]; 70 mg/kg): 18.20 ± 1.58^#Δ mg/each mouse/10 min | Saliva amount in NOD mice, Two weeks after administration ([6]; 70 mg/kg): 18.25 ± 1.50 mg/each mouse/10 min | Saliva amount in NOD mice, Pre-administration ([6]; dose group 17.5 mg/kg): 19.50 ± 1.38 mg/each mouse/10 min | Saliva amount in NOD mice, Pre-administration ([6]; dose group 35 mg/kg): 19.33 ± 3.20 mg/each mouse/10 min | Saliva amount in NOD mice, Pre-administration ([6]; dose group 70 mg/kg): 19.51 ± 1.87 mg/each mouse/10 min | Saliva amount (in words) ([6]; NOD model mice, Example 4): significantly increase | Onset time of curative effects versus comparators ([6]; NOD model mice, Example 4, saliva amount): earlier than that of TGP, or Pae | Spleen index ([7]; 17.5 mg/kg): 9.00 ± 1.61 mg/g | Submaxillary gland index ([7]; 17.5 mg/kg): 3.56 ± 0.62 mg/g | Thymus index ([7]; 17.5 mg/kg): 1.06 ± 0.31 mg/g | Spleen index ([7]; 35 mg/kg): 8.92 ± 1.33 mg/g | Submaxillary gland index ([7]; 35 mg/kg): 3.32 ± 0.66 mg/g | Thymus index ([7]; 35 mg/kg): 1.31 ± 0.42 mg/g | Spleen index ([7]; 70 mg/kg): 8.51 ± 1.42 mg/g | Submaxillary gland index ([7]; 70 mg/kg): 3.24 ± 0.57 mg/g | Thymus index ([7]; 70 mg/kg): 1.03 ± 0.44 mg/g | Increasing of submaxillary gland index (in words) ([7]; Example 2): significantly suppress the increasing | Score: mice with submaxillary gland pathology Grade 0 ([8]; 17.5 mg/kg): 0 | Score: mice with submaxillary gland pathology Grade I ([8]; 17.5 mg/kg): 0 | Score: mice with submaxillary gland pathology Grade II ([8]; 17.5 mg/kg): 0 | Score: mice with submaxillary gland pathology Grade III ([8]; 17.5 mg/kg): 1 | Score: mice with submaxillary gland pathology Grade IV ([8]; 17.5 mg/kg): 3 | Score: mice with submaxillary gland pathology Grade 0 ([8]; 35 mg/kg): 0 | Score: mice with submaxillary gland pathology Grade I ([8]; 35 mg/kg): 0 | Score: mice with submaxillary gland pathology Grade II ([8]; 35 mg/kg): 0 | Score: mice with submaxillary gland pathology Grade III ([8]; 35 mg/kg): 1 | Score: mice with submaxillary gland pathology Grade IV ([8]; 35 mg/kg): 3 | Score: mice with submaxillary gland pathology Grade 0 ([8]; 70 mg/kg): 0 | Score: mice with submaxillary gland pathology Grade I ([8]; 70 mg/kg): 0 | Score: mice with submaxillary gland pathology Grade II ([8]; 70 mg/kg): 0 | Score: mice with submaxillary gland pathology Grade III ([8]; 70 mg/kg): 3 | Score: mice with submaxillary gland pathology Grade IV ([8]; 70 mg/kg): 1^# | Pathological changes in submaxillary gland ([8]; Example 3, dose not given): apparently ameliorate the pathological changes | Pathological changes in submaxillary glands (H&E staining score, rank-sum test) ([8]; high dose of CP-25): apparently ameliorate the pathological changes | Spleen B lymphocyte proliferation [9]: significantly inhibit
